The conditions of data set [1]: cited from earlier work.
The conditions of data set [2]: cited from earlier work; for polymorphic conversion: DRX2: upon temperature increase, DRX3: outside dry conditions.
Data set [3] in a line: Behaviour on heating by TG/DTA. It is filed as physicochemical. The conditions noted are these: lost small amounts of water. The method, then:
Thermogravimetric analyses were carried out on a Mettler Toledo TGA/DSC1 STARe. The calibration standards were indium and tin. Samples were placed in an aluminium sample pan, inserted into the TG furnace and accurately weighed. The heat flow signal was stabilised for one minute at 30° C., prior to heating to 270° C. in a stream of nitrogen at a rate of 10° C./minute.
Masitinib mesylate (25 mg) was charged into a scintillation vial followed by methanol (containing small amounts of water; 1.0 mL). The suspension was then heated until the masitinib mesylate had dissolved. The masitinib mesylate solution in methanol was then allowed to slowly cool to room temperature. The crystals which formed were then harvested by filtration and analyzed by XRPD and TG/DTA.

Data set [4] is described as follows: Dynamic Vapour Sorption (DVS) hygroscopicity. It is filed as physicochemical. The method, then:
Dynamic Vapour Sorption (DVS) was performed using a Hiden Analytical Instruments IGAsorp Vapour Sorption Balance. Approximately 30 mg of sample was placed into a wire-mesh vapour sorption balance pan, loaded into the IGAsorp vapour sorption balance and held at 25° C.±0.1° C. The sample was subjected to a step profile from 40% RH to 90% RH at 10% increments, followed by desorption from 90% RH to 0% RH at 10% increments and a second adsoriotn cycle from 0% RH to 90% RH. The equilibrium criterion was set to 99.0% step completion within a minimum of 60 minutes and a maximum of 5 hours for each increment. The weight change during the sorption cycle was monitored, allowing for the hygroscopic nature of the sample to be determined. The data collection interval was in seconds.
The hygrosopicity of masitinib mesylate form H as obtained from example 2 was assessed by DVS. The DVS isotherm was initiated at 40% r.h. and increased to 70% r.h. The weight gain in this relative humidity interval was below 0.27% (w/w).

Where [5] appears, read: as described in response to the eESR.

This is an account of results in patent US20150166524A1, “CRYSTALLINE FORM OF MASITINIB” (SANDOZ AG, priority 2013, published 2015).

Consider Masitinib mesylate [crystal form I], for which the “behaviour at 80% relative humidity” value in data set [1] (80% relative humidity) is reported as “remains dry”. The thermodynamic stability result in data set [1] (at temperatures below 200° C.) is listed as “thermodynamically stable”. Also, the hygroscopicity entry in data set [2] (setting [5]) is on record as “mildly hygroscopic”.

Turning to masitinib mesylate [DRX2], the polymorphic conversion entry in data set [2] is “slowly, but fully, converts to DRX1”. Also, in data set [2] (setting [5]), the polymorphic stability entry is “stable only at 25 °C”.

For the substance “masitinib mesylate [Comparative Example]”, the “polymorphic conversion upon heating” value in data set [3] is on record as “converted to masitinib mesylate crystal form I upon heating”.

Regarding masitinib mesylate [DRX3], in data set [2], the polymorphic conversion result is “quickly converts to DRX2”. Also, in data set [2] (setting [5]), the polymorphic stability entry is listed as “stable under dry conditions only”.

As to Masitinib mesylate [form H], in data set [4] (DVS), the “hygroscopicity compared with form I” value is reported as “less hygroscopic than masitinib mesylate form I”. Also, the “weight gain in relative humidity interval (DVS)” value in data set [4] (DVS isotherm from 40% r.h. to 70% r.h., form H from example 2) is “below 0.27 % (w/w)”. Besides, the “water absorbed (DVS)” value in data set [4] (interval of relative humidity between 40% and 70% r.h.) was “less than 0.5 weight %”.
